Calls of active or inactive are those of the source.
Experiments:
[1] = target: ATP-dependent molecular chaperone HSP82 (Candida albicans (strain WO-1) (Yeast), UniProt C4YTQ8); experiment: loss of DOC-induced GRE-beta-galactosidase reporter signal, dose response, Hsp90 inhibitor project, S. cerevisiae, luminescence (AID 2400); assay type: functional, cell-based;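 note: beta-galactosidase luminescence from glucocorticoid response element reporter as proxy for Hsp90 function; inhibitor potency where signal loss means Hsp90 inhibition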
Chain of ATP-dependent molecular chaperone HSP82 (C4YTQ8 whole entry): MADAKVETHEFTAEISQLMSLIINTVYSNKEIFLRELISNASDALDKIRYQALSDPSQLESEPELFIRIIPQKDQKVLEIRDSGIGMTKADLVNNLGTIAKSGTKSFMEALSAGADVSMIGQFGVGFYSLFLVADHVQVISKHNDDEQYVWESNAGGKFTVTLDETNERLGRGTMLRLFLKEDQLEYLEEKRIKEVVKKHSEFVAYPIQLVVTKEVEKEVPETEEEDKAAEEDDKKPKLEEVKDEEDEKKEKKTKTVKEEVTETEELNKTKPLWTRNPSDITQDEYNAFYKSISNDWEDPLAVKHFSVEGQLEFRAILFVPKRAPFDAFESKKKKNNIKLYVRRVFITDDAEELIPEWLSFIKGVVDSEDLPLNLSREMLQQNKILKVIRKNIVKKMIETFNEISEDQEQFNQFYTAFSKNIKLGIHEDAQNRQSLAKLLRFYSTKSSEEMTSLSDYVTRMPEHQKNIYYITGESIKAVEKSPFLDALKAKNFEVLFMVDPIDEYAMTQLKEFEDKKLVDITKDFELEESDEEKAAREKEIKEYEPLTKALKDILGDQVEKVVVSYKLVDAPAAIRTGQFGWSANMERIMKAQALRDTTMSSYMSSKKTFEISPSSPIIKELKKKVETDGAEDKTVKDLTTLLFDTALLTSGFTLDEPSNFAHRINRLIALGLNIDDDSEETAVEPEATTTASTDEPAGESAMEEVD

[2] = cells; assay type: functional, cell-based
[3] = cytotoxicity in HEK-293T cells, dose response, cytotoxicity control for TCR NF-kB inhibitor project, luminescence, T-cell screen hits (AID 489026); assay type: functional, cell-based;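 note: cells exposed to compound about 14 hours before the viability readout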
[4] = target: T1, Serine/threonine-protein phosphatase (Candida dubliniensis (strain CD36 / CBS 7987 / NCPF 3949 / NRRLY-17841) (Yeast), UniProt B9W6M3); experiment: calcineurin pathway inhibitors in yeast reporter, dose response, S. cerevisiae, CDRE-lacZ, luminescence, secondary (AID 2388); assay type: functional, cell-based;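 note: yeast reporter cells carrying a calcineurin-responsive lacZ construct stimulated with calcium chloride; luminescent beta-galactosidase reporter signal in whole cells rather than isolated phosphatase activity; potency for inhibition where a drop in reporter signal means calcineurin blockade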
T1 sequence (B9W6M3 whole entry): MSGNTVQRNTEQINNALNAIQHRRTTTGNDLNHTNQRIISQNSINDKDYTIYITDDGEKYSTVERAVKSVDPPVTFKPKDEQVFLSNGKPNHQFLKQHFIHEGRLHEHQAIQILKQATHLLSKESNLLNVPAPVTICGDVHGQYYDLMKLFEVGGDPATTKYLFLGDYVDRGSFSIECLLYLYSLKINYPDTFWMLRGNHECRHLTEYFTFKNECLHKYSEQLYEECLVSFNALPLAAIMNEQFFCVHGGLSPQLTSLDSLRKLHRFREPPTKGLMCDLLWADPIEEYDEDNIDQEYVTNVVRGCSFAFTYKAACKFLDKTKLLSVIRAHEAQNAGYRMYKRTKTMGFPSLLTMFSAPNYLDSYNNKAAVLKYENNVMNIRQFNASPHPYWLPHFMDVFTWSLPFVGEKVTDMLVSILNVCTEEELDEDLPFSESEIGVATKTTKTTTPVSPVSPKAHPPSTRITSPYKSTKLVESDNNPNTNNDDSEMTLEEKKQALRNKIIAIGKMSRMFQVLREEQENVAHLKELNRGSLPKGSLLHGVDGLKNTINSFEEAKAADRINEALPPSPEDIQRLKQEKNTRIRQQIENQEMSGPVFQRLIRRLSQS

[5] = NIH-3T3 fibroblast cytotoxicity, dose response, cytotoxicity control, cell-based, fluorescence, Alamar Blue, secondary assay (AID 2327); assay type: functional;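 note: NIH-3T3 mouse fibroblasts cultured with fluconazole at 8 µg/mL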
[6] = test system: INS1; experiment: beta cell apoptosis inhibitors, cytokine rescue, dose response, luminescence, retest (AID 449756); assay type: functional, cell-based; details: Rattus norvegicus;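 note: cell death triggered by IL-1 beta plus TNF-alpha plus IFN-gamma mixture; protective hits raise ATP signal compared with cytokine alone wells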
[7] = C. albicans growth with fluconazole, confirmation, fluorescence, retest (AID 2467); assay type: functional, cell-based
[8] = target: Heat shock protein HSP 90-alpha (Homo sapiens, UniProt P07900); assay type: functional, organism-based
[9] = microbe, parasite or virus in culture; assay type: functional; details: Mycobacterium tuberculosis
[10] = cells; assay type: functional, cell-based; remark: listed apart in the source
[11] = AlphaScreen signal interference compounds, dose response, artefact control for ARNT-TACC3 interaction inhibitor project, biochemical, luminescence, cherry-pick (AID 651705); assay type: functional;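 note: AlphaScreen bead proximity signal that flags compounds interfering with the detection technology; potency reflects signal decrease which marks the compound as an assay artifact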
[12] = growth suppression of PTEN-null colon cells, dose response, cell-based, HCT116 PTEN knockout (AID 1047); assay type: functional;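 note: HCT116 colon tumor cells with PTEN knocked out; cells exposed to compound for 60 hours before readout; potency for loss of cell viability measured by luminescence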
[13] = growth suppression of beta-catenin-knockout colon cells, dose response, cell-based, HCT116, human colon tumor (AID 1045); assay type: functional;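 note: HCT116 colon tumor cells with beta catenin knocked out; cells exposed to compound for 60 hours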
[14] = target: T2, Interleukin-8 (Homo sapiens, UniProt P10145); experiment: Dose Response confirmation of uHTS small molecule hits for cystic fibrosis induced NFkb Inhibitors in a PAF-induced IL8 counterscreen.; assay type: functional; details: read-out: IC50_Mean
T2 sequence (P10145 whole entry): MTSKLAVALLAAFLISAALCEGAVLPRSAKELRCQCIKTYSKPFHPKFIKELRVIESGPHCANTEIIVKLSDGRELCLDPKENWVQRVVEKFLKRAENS

[15] = enhancers of respiration in Yfh1-depleted yeast, dose response, Friedreich's ataxia, plus single-dose screen (AID 1465); assay type: functional;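 note: yeast depleted of Yfh1p frataxin homolog grown on glycerol needing respiration; WST-1 tetrazolium dye reduction as measure of cellular dehydrogenase metabolic activity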
[16] = target: T2, Interleukin-8; experiment: Dose Response confirmation of uHTS small molecule hits for cystic fibrosis induced NFkb Inhibitors in a TNFa-induced IL8 counterscreen.; assay type: functional; details: read-out: IC50_Mean
[17] = target: T3, DNA repair protein RAD52 homolog (Homo sapiens, UniProt P43351); assay type: functional, biochemical
T3 sequence (P43351 whole entry): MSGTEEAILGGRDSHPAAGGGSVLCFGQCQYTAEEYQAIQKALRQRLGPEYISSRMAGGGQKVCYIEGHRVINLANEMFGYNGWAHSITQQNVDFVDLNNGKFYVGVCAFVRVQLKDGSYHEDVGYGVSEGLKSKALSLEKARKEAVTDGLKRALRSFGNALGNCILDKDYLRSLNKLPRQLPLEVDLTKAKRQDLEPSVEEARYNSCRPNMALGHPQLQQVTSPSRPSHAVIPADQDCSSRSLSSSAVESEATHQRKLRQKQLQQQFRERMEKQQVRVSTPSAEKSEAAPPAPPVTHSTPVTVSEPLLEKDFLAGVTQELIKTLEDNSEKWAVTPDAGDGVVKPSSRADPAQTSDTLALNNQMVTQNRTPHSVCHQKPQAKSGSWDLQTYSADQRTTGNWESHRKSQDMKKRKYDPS

[18] = target: T4, High affinity choline transporter 1 (Homo sapiens, UniProt Q9GZV3); experiment: CHT inhibitors, dose response, cell-based, 10-point CRC, membrane potential dye (AID 588401); assay type: functional;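 note: membrane potential dye fluorescence of choline-evoked depolarization via CHT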
T4 sequence (Q9GZV3 whole entry): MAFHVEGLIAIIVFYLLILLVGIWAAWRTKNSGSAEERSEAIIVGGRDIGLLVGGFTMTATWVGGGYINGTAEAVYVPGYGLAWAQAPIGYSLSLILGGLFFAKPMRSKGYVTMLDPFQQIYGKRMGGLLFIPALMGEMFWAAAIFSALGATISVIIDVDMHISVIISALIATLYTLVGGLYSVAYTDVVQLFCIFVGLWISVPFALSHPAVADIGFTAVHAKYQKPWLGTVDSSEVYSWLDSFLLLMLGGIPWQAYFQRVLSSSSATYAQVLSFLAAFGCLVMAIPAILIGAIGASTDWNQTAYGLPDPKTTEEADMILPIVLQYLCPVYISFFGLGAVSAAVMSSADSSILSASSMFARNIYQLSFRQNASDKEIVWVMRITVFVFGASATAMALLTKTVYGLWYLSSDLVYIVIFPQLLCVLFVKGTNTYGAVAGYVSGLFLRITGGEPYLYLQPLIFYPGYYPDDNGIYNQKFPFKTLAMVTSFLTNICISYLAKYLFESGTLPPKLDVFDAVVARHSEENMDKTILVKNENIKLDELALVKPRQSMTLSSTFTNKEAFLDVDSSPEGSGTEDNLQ

[19] = target: T4, High affinity choline transporter 1; experiment: CHT inhibitors, dose response, cell-based, 5-point CRC, membrane potential dye (AID 504840); assay type: functional
[20] = target: Ras and Rab interactor 1/Tyrosine-protein kinase ABL1 (Homo sapiens, UniProt P00519+Q13671); assay type: functional;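 note: biochemical TR-FRET dose-response test measuring inhibition of binding between Rin1 and Abl proteins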
Chain of Ras and Rab interactor 1/Tyrosine-protein kinase ABL1 (P00519 whole entry): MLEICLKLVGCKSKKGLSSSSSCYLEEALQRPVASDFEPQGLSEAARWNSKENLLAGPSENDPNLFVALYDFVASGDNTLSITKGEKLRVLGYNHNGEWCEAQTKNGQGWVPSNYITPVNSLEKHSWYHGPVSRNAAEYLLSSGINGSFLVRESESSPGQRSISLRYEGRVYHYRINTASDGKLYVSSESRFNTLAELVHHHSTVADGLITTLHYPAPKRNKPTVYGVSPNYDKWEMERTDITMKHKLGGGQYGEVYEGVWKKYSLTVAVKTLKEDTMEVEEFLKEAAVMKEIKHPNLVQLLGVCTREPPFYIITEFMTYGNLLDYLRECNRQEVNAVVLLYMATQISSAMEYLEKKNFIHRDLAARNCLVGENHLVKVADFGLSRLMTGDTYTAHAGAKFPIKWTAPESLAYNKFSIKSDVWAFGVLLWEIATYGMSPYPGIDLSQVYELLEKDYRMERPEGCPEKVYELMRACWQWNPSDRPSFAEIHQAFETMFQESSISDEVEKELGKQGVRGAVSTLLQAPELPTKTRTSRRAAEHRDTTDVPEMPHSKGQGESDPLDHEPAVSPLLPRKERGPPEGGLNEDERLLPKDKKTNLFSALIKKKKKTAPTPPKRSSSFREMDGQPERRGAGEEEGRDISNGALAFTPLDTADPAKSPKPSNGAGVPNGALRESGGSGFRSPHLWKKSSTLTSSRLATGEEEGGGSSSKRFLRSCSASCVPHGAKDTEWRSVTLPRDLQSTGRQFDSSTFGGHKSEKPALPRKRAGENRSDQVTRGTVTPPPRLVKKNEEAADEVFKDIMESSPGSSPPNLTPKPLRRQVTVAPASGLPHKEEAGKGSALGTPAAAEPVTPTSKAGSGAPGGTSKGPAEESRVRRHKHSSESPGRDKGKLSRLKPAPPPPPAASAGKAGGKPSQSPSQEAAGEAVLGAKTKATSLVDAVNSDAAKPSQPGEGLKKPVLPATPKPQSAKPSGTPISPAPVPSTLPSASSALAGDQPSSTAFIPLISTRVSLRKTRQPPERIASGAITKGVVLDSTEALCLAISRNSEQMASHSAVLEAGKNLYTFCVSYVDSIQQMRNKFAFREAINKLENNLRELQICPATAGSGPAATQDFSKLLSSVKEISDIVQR
Chain of Ras and Rab interactor 1/Tyrosine-protein kinase ABL1 (Q13671 whole entry): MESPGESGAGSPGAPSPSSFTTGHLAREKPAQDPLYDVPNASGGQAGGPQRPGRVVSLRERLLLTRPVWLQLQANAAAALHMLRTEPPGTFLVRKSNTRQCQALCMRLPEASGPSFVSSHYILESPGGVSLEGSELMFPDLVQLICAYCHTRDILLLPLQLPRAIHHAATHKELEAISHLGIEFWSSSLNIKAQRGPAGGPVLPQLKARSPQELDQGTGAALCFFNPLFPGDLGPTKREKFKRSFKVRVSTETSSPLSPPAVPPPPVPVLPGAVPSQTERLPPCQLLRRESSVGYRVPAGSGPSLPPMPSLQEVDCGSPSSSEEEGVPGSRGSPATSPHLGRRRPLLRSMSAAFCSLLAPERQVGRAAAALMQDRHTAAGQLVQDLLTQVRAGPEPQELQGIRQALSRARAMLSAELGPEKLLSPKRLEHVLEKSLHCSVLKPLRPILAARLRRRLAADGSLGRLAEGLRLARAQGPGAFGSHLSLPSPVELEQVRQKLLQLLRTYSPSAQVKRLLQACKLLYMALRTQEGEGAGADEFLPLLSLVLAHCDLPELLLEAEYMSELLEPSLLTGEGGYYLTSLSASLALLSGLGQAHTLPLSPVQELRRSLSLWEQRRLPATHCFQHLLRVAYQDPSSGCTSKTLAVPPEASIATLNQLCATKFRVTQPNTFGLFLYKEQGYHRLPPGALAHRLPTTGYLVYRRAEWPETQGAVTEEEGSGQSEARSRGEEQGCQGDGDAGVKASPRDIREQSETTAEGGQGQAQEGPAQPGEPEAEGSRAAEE

[21] = test system: H9c2; experiment: cells; assay type: functional, cell-based; details: Rattus norvegicus, H9c2, Myocardium;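 note: confirmatory concentration-response retest of ultra-high-throughput screening hits for modulation of myocardial damage; cell death induced by hydrogen peroxide oxidative stress; compound pretreatment for 60 min then peroxide exposure for 2 h; potency is for protecting the cells against peroxide damage rather than for killing them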
[22] = test system: CHO; experiment: cytotoxicity in TLR9-MyD88 CHO cells, dose response, cytotoxicity control for TLR9-MyD88 binding inhibitor project, cell-based, luminescence (AID 588339); assay type: functional, hamster; details: Cricetulus griseus;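 note: CHO cells stably coexpressing TLR9 and MyD88 fusions from primary screen; compound exposure lasted 48 hours before viability readout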
[23] = target: Beta Lactamase (Pseudomonas aeruginosa, UniProt Q932Y6); experiment: beta-lactamase reporter inhibitor potency, dose response, artefact control for TLR9-MyD88 binding inhibitor project, BLA reporter cells, FRET fluorescence (AID 588341); assay type: cell-based;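 note: cell based assay in CHO-K1 cells stably expressing beta-lactamase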
Chain of Beta Lactamase (Q932Y6 whole entry): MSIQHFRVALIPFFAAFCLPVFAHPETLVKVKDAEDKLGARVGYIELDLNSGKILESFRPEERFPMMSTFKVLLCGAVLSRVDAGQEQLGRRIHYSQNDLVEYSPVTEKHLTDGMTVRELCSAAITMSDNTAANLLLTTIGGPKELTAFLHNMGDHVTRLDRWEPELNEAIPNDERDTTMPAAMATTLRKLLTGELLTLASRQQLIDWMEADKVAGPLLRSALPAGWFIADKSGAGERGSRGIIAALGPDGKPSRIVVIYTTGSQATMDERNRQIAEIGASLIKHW

[24] = target: DNA repair and recombination protein RAD54-like (Homo sapiens, UniProt Q92698); experiment: inhibitors of human RAD54 branch migration, confirmation, biochemical, fluorescence, cherry-picked samples, dose series (AID 651657); assay type: functional
Chain of DNA repair and recombination protein RAD54-like (Q92698 whole entry): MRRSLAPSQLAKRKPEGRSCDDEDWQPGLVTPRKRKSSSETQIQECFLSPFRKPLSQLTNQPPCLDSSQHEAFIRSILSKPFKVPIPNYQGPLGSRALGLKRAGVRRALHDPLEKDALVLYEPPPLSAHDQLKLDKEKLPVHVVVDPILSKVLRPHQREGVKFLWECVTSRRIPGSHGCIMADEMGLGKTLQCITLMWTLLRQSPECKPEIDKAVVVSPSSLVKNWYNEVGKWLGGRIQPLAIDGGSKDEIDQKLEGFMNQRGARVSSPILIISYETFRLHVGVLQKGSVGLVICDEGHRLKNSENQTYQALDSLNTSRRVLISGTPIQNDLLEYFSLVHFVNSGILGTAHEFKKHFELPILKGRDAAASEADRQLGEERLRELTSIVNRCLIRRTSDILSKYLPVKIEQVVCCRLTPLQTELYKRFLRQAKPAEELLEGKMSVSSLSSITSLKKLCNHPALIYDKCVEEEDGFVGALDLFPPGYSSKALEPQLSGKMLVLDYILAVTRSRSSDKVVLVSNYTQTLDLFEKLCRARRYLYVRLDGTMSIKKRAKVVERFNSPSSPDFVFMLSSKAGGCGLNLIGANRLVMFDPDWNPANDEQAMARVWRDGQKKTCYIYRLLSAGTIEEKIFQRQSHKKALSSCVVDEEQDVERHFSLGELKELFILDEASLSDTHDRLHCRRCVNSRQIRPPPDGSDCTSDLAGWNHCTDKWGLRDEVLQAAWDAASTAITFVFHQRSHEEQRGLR

[25] = target: T5, Apoptotic protease-activating factor 1 (Homo sapiens, UniProt O14727); experiment: SAR analysis of small molecule inhibitors of Apaf-1 in a Fluorescent assay.; assay type: functional; details: read-out: IC50_Mean
T5 sequence (O14727 whole entry): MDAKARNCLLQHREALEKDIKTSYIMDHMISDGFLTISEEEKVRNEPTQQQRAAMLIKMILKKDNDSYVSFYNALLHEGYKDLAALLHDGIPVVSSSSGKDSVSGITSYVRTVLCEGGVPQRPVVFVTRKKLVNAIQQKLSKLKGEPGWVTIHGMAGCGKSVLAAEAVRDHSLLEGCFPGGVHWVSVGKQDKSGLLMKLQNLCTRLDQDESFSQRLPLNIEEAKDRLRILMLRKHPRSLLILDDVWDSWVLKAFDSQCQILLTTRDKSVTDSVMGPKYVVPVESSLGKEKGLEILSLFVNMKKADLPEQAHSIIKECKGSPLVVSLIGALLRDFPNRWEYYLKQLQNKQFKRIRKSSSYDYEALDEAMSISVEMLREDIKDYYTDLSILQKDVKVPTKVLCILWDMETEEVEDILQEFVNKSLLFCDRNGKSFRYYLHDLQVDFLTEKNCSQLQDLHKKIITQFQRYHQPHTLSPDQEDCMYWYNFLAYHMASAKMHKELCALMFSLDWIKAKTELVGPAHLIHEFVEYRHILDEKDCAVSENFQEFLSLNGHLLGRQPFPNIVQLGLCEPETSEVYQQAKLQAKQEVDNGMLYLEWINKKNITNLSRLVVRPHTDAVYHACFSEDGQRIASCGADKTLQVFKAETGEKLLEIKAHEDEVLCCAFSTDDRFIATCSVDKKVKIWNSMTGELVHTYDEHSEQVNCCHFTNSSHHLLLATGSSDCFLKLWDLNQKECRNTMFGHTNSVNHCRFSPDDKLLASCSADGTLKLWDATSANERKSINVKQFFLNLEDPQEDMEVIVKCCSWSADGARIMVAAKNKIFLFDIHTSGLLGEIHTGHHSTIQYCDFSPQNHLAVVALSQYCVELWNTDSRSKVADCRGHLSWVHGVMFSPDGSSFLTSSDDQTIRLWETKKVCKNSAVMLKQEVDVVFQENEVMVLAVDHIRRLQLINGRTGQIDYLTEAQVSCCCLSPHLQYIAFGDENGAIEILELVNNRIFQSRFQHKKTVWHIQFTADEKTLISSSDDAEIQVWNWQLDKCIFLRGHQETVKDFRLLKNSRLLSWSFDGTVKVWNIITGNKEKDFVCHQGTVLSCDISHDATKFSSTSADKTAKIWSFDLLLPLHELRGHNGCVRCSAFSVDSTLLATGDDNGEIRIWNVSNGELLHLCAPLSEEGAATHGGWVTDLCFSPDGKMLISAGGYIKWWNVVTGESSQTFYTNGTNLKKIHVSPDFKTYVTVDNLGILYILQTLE

[26] = test system: Streptococcus sp. 'group A'; experiment: growth inhibition of control SK(-) GAS strain, dose response, counter-screen for streptokinase expression inhibitor project, luminescence, kanamycin, BacTiterGlo, confirmation (AID 1900); assay type: functional, organism-based
[27] = test system: Streptococcus; experiment: Group A Streptococcus viability loss, dose response, counter-screen for streptokinase expression inhibitor project, luminescence, BacTiterGlo (AID 1915); assay type: functional, organism-based;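 note: potency for reduction of bacterial viability or growth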

## COc1cccc(/C=N/Nc2ncnc3scc(-c4ccccc4)c23)c1O
[1]
  EC50: 17.7 µM (active)
[2]
  EC50: > 350 µM (not active)
[3]
  IC50: 62.5 µM (inactive)
[4]
  EC50: > 180 µM (inactive)
[5]
  EC50: > 150 µM (inactive)
[6]
  AC50: 0.432 µM (active)
[7]
  EC50: 0.753 µM (active)
[8]
  AC50: 24.5 µM (active)
[9]
  CC50: 1.31 µM (active)
[10]
  EC50: 2.21 µM (active)

## O=C(COc1nsnc1N1CCOCC1)N/N=C/c1ccccc1O
[11]
  AC50: 107 µM (active)
[12]
  EC50: 28.5 µM (active)
[13]
  EC50: 23.7 µM (active)

## Sc1nnc(-c2ccncc2)n1/N=C/C(Cl)=C\c1ccccc1
[14]
  IC50: 3.4 µM (active)
[15]
  EC50: > 100 µM (active)
[16]
  IC50: > 79 µM (inactive)

## C[N+]1(C)CCOC(O)(c2ccc(-c3ccc(C4(O)C[N+](C)(C)CCO4)cc3)cc2)C1 (stereo unspecified)
[17]
  AC50: 7.78 µM (active)
[18]
  IC50: 0.127 µM (active)
[19]
  IC50: 0.296 µM (active)

## Oc1nccc(N/N=C/c2ccccc2)n1
[20]
  IC50: > 73.5 µM (inactive)

## CCOc1ccc(NCc2cc3c(C(C)(C)C)nn(-c4ccccc4)c3nc2O)cc1
[14]
  IC50: 0.628 µM (active)
[21]
  IC50: 24.2 µM (active)
[12]
  EC50: 9.36 µM (active)
[8]
  AC50: 8.84 µM (active)
[13]
  EC50: 13.5 µM (active)
[16]
  IC50: > 79 µM (inactive)

## Cc1ccc(C(C)NC(=O)C2CCCC2)cc1C (stereo unspecified)
[18]
  IC50: 6.48 µM (active)
[19]
  IC50: 8.58 µM (active)

## CC(=O)c1sc2nc(-c3ccc(C)cc3)c3c(c2c1N)CCCC3
[22]
  IC50: 36.7 µM (inactive)
[23]
  IC50: 3.73 µM (active)

## COc1ncccc1-c1cc2nc(NCCCN(C)C)n(C)c(=O)c2s1
[17]
  AC50: 4.91 µM (active)
[24]
  AC50: 12.9 µM (active)

## CCN(CC)CCOC(=O)c1ccc(N/C=C(\C#N)c2nc(-c3ccc(Br)cc3)cs2)cc1
[25]
  IC50: 14.7 µM (active)

## CCN(CC)CCOC(=O)c1ccc(N/C=C(\C#N)c2nc(-c3cccs3)cs2)cc1
[25]
  IC50: 13.7 µM (active)

## Oc1c(C(c2ccc(Cl)cc2)N2CCCC2)cc(Cl)c2cccnc12 (stereo unspecified)
[26]
  EC50: 1.34 µM (active)
[1]
  EC50: 22.5 µM (active)
[27]
  EC50: 1.41 µM (active)
[4]
  EC50: > 180 µM (inactive)
[5]
  EC50: 15 µM (active)
[7]
  EC50: 0.135 µM (active)
[8]
  AC50: 2.02 µM (active)

— ChEMBL document CHEMBL1201862, “PubChem BioAssay data set” (2004)
